Data on one compound can be found in US11149028B2, “Methods for treating melanoma using small molecules” (NOVA SOUTHEASTERN UNIVERSITY, priority 2016, dated 2021).

The test system of this assay is M14 cells. How it is done:
ApoTox-Glo™ Triplex Assay which allows one to simultaneously assess the effect of small molecules on cell viability, toxicity, caspase activity, and cell cycle all in the same well (Niles, A. L.; Moravec, R. A.; Riss, T. L. In vitro viability and cytotoxicity testing and same-well multi-parametric combinations for high throughput screening. Curr Chem Genomics 2009, 3, 33-41) was utilized. First, a mixture of 2 fluorogenic substrates was added to cells. GF-AFC substrate is cell-permeant and non-lytic to cells, allowing the measurement of active protease inside live cells. The second substrate (bis-AAF-R110 Substrate) is not cell-permeable and is only cleaved when proteases are released from cells due to the loss of membrane integrity typical of cell death. This step generates an inversely correlated measurement of cell viability and toxicity.
The second addition is luminogenic DEVD-peptide substrate for caspase-3/7 and Ultra-Glo™ Recombinant Thermostable Luciferase. Caspase-3/7 cleavage of the substrate generates a luminescent signal which correlates with caspase-3/7 activation as a key indicator of apoptosis. As markers for cytotoxicity and apoptosis are transient, the assay was conducted in time course format with time points at 4, 24, 48, and 72 h.
M14 #5 cells were plated in 384-well format at a density of 1,250 cells in 5 μL of serum-free DMEM media and incubated at 37° C. in 5% CO2 for 4 h. Control and test compounds were serially diluted in a ratio of 1:3 and added to wells in 4 μL. […] Plates were incubated at 37° C. in 5% CO2 for 4, 24, 48, and 72 h. At the end of each time point Viability/Cytotoxicity™ Reagent was prepared containing 400 μM glycylphenylalanyl-aminofluorocoumarin (GF-AFC) substrate (cleavable by live cell proteases) and 400 μM bis-alanylalanyl-phenylalanyl-rhodamine 110 (bis-AAF-R110) substrate (cleavable by dead cell proteases). 4 μL of the Viability/Cytotoxicity™ Reagent was used per well. The plate was incubated for 30 min at 37° C. Fluorescence was read at λEx=400 nm and λEm=505 nm for GF-AFC and λEx=485 nm and λEm=520 nm for bis-AAF-R110 on the BioTek Synergy™ 4 Multi-Mode Microplate Reader. Caspase-Glo® 3/7 Reagent was then added in 12 μL volume. The plate was incubated for 30 min at room temperature and luminescence was measured on the BioTek Synergy™ 4 Multi-Mode Microplate Reader.

The mark [1] stands for this setting: time course 4-72 h, time stated at the place.

Each structure is given as a SMILES string. Entries after “also recorded” stand apart in the source; their conditions may differ. Like-named read-outs stand apart in the source and are kept apart here.

Turning to `O=C1NC[C@H](Cc2ccccc2)N(C[C@@H]2CCCN2C[C@@H](CC2CCCCC2)N2C[C@H](Cc3ccc(O)cc3)N(CCc3ccccc3)C(=O)C2=O)C1=O` [Compound 2155-14, (S)-1((R)-1((S)-2-(((S)-6-benzyl-2,3-dioxopiperazin-1-yl)methyl)pyrrolidin-1-yl)-3-cyclohexylpropan-2-yl)-5-(4-hydroxybenzyl)-4-phenethylpiperazine-2,3-dione], the caspase signal is given as 550 % of untreated control (24 h) and 400 % of untreated control (48 h). Also, under setting [1], the “ApoTox caspase-3/7 activity” value is “no markers for apoptosis and cytotoxicity; also recorded: The 24 h time point was characterized by a significant spike in caspase activity; also recorded: By 72 h the caspase signal has decayed”. Besides, the “ApoTox viability (live cell protease)” value under setting [1] is given as “no effect on cell viability as measured by live cell protease at the 4 h time point; also recorded: dose dependent response at 48 h”.
